Experiments:
SHSY5Y cells [1] = assay: TMRE staining of mitochondrial membrane potential in SHSY5Y cells; assay type: cell-based; conditions: 10 μM, 72 hours
Experimental: (§1) FIGS. 6A-6C. Histograms showing TMRE staining of SH-SY5Y cells transiently expressing empty vector (Mock) or Swedish mutant APP in the presence or absence of 474 (10 μM) for 72 hours (FIG. 6A). Quantification of TMRE staining in (A). Error bars represent SEM for n=3 replicates. Statistics calculated from one-tailed Student's t-test. *p<0.05, **p<0.01, ***p<0.001 (FIG. 613). Graph showing relative luminescence from CellTiterGlo assay of SH-SY5Y cells transiently expressing empty vector or Swedish mutant APP cultured in galactose media for 72 hours in the presence or absence of IRE1 activator 474 (10 μM). Error bars represent SEM for n=3 replicates. Statistics calculated from one-tailed Student's t-test. *p<0.05, **p<0.01, ***p<0.001 (FIG. 6C).
Cells were treated as indicated then incubated with TMRE dye (200 nM) for 30 mins at 37° C. Samples were collected by trypsinization. Trypsin was neutralized by washing into cell culture media and then samples were washed twice in DPBS. […] Fluorescence intensity of TMRE was recorded on the PE channel of a Novocyte Flow Cytometer (ACEA Biosciences, Inc.). Data are presented as mean of the fluorescence intensity from 3 experiments. For each experiment, 10,000 cells per condition in triplicates were recorded.
Next, mitochondrial membrane potential was monitored in SHSY5Y cells overexpressing APP^SW and that had been treated with 474. […]

SHSY5Y cells [2] = assay: CellTiterGlo ATP levels in SHSY5Y cells overexpressing APP SW; assay type: cell-based; conditions: APP SW overexpressing cells cultured in galactose, 10 μM, 72 hours
Experimental: as §1
For determination of relative cellular ATP levels, SHSY5Y cells were seeded into flat black, poly-D-lysine coated 96-well plates (Corning). […] Luminescence was then measured in an Infinite F200 PRO plate reader (Tecan and corrected for background signal. All measurements were performed in biologic triplicate.
Mitochondrial depolarization decreases the capacity for cells to produce ATP through oxidative phosphorylation at the inner mitochondrial membrane. […] Accordingly, ATP levels were monitored in SHSY5Y cells overexpressing APP^SW and incubated in media that was supplemented with glucose or galactose. […]

[3] = system: IRE1-specific target genes; assay: RT-PCR of Xbp1s and Erdj4 in adipose tissue after single IP dose; assay type: in vivo
Text: (§2) FIGS. 7A-7D. RT-PCR of Xbp1s and the IRE1/XBP1s target gene Erdj4 from adipose tissue post single IP dose of 474 (FIG. 7A). Liver RNAseq profiles of ATF6, IRE1 and PERK target genes expressed as log 2 fold change of chronic 474 treatment compared to vehicle (FIG. 7B). Body weight (FIG. 7C) and food intake (FIG. 70) over 6 weeks of dosing.
Obesity has grown into a major public health crisis over the past few decades, enhancing the risk of numerous complications such as type 2 diabetes (T2D). […] of Xbp1, the key transcription factor downstream of IRE1, causes insulin resistance through increased accumulation of ER stress^33. Conversely, overexpression of active Xbp1s in the livers of ob/ob mice restores insulin signaling and reduces gluconeogenesis through the targeted degradation of a key metabolic regulator, FoxO1^55. IRE1 function is also critical in the maintenance of pancreatic β-cell function and glucose stimulated-insulin secretion^56. Although these genetic studies highlight the therapeutic potential of targeting the IRE1-XBP1s signaling axis for T2D and related metabolic disorders, no highly-selective pharmacological IRE1 activators have been available until the present disclosure's provision for screening and optimization of a lead molecule, 474.

PERK target genes = assay: Liver RNA sequencing of DIO mice, PERK targets; assay type: in vivo, mouse; conditions: once-daily IP 50 mg/kg, 6 weeks
Experimental: as §2
To test the efficacy of pharmacologic IRE1 activation in mitigating T2D, we chronically administered 474 by once-daily IP injections at 50 mg/kg for a period of 6 weeks to Diet-Induced Obese (DIO) mice, a model of T2D.

liver = assay: Hepatic triglyceride content and gluconeogenic gene expression in DIO mice; assay type: in vivo, mouse; conditions: 6 weeks post dosing
Text: FIGS. 8A-8E. Oral glucose tolerance test in DIO mice treated with either Vehicle or 474 for 3 weeks (n=8) (FIG. 8A). Serum glucose and insulin levels post 4 weeks of dosing with 474 or vehicle (FIG. 8B). Glucose stimulated insulin secretion in islets isolated from 474 or vehicle treated mice. (FIG. 8C). Hepatic triglyceride content (FIG. 8D) and gene expression profiles of gluconeogenic genes (FIG. 8E) at 6 weeks post dosing.
This effect can be rationalized, at least in part, by enhanced pancreatic f-cell function in 474-treated […], as shown by our studies in isolated pancreatic islets from vehicle- and 474-treated mice. […] Given the well-documented link between IRE1 and hepatic metabolism in T2D^55, we also examined markers of liver function after 474 treatment. We found reduced liver triglyceride accumulation in 474-treated mice relative to controls (FIG. 80).

Cc1ccc(OCCN(C)C(=O)Cn2cc(NC(=O)CCOc3ccccc3)cn2)cc1 [Compound 474]
APP SW-associated reductions in mitochondrial membrane potential (SHSY5Y cells [1]; SHSY5Y overexpressing APP SW): prevented
mitochondrial membrane potential (SHSY5Y cells [1]; mock-transfected cells): did not influence
ATP levels (SHSY5Y cells [2]): increased
IRE1-specific target genes in adipose tissue [3]: induction
bioavailability [3]: readily bioavailable
PERK target genes in liver (PERK target genes): no induction
expression of genes associated with glucose metabolism in liver (liver): reductions
liver triglyceride accumulation (liver; relative to controls): reduced
